A word on the EC50: it is the concentration needed to bring the measured effect to its halfway point. One may read the CC50 as the concentration at which the toxic effect on the cells reaches its halfway point. A low value points to harm at low concentration. As usually defined, the inhibition is the percentage by which the read-out fell short of the control.

The record followed here is ChEMBL document CHEMBL1944566, “Conjugation of cell-penetrating peptides leads to identification of anti-HIV peptides from matrix proteins” (Bioorg Med Chem, 2012).

The source made the active and inactive calls. No cut-off for these calls is given here. Where a SMILES comes first, the peptide text is derived from it. The star is where a group is joined. Cam = NC(=O)C* Some results are limits rather than exact numbers.

For data set [1], the system named is Human immunodeficiency virus 1. As to the kind of experiment: Antiviral activity against R5 tropic HIV1 NL(AD8) in PM1/CCR5 cells assessed as protection from virus-induced cytopathogenicity after 5 days by MTT assay. It is filed as functional, organism-based. The note with it: Human immunodeficiency virus 1, NL(AD8), PM1/CCR5, 120 h. Background: Protection from cytopathic effect is a common read-out in antiviral testing.

A short description of data set [2]: Cytotoxicity against human MT4 cells after 5 days by MTT assay. It is filed as cell-based. (In general: Tetrazolium assays rely on reduction of a dye to a coloured formazan, in cell work by metabolically active cells.)
Data set [3] is described as follows: Aqueous solubility of the compound. The data set is classed as physicochemical. The conditions noted are these: buffer.
Data set [4] relates to Human immunodeficiency virus 1. Put plainly: Antiviral activity against X4 tropic HIV1 NL4-3 in MT4 cells assessed as protection from virus-induced cytopathogenicity after 5 days by MTT assay. The conditions noted are these: Human immunodeficiency virus 1, NL4-3, MT4, 120 h. It is filed as functional, organism-based.
Data set [5] relates to Human immunodeficiency virus 1. Put plainly: Antiviral activity against R5 tropic HIV1 JR-CSF in PM1/CCR5 cells assessed as protection from virus-induced cytopathogenicity measuring capsid p24 level after 5 days by ELISA. It is filed as functional, cell-based. The conditions noted are these: Human immunodeficiency virus 1, JRCSF ISOLATE, PM1/CCR5, 120 h.
Data set [6] has as its system Human immunodeficiency virus 1. Put plainly: Antiviral activity against X4 tropic HIV1 NL4-3 in MT4 cells assessed as protection from virus-induced cytopathogenicity at 3.13 uM after 5 days by MTT assay. It is filed as functional, organism-based.
Data set [7] relates to Human immunodeficiency virus 1. Put plainly: Antiviral activity against R5 tropic HIV1 NL(AD8) in PM1/CCR5 cells assessed as protection from virus-induced cytopathogenicity at 6.25 uM after 5 days by MTT assay. The data set is classed as functional. The note with it: Human immunodeficiency virus 1, NL(AD8), PM1/CCR5, 120 h.
Data set [8] has as its system Human immunodeficiency virus 1. Put plainly: Antiviral activity against R5 tropic HIV1 JR-CSF in PM1/CCR5 cells assessed as protection from virus-induced cytopathogenicity measuring capsid p24 level at 50 uM after 5 days by ELISA. It is filed as functional. The note with it: Human immunodeficiency virus 1, JRCSF ISOLATE, PM1/CCR5, 120 h.

`CC[C@H](C)[C@H](NC(=O)[C@H](CCCNC(=N)N)NC(=O)[C@H](CCC(N)=O)NC(=O)[C@H](Cc1cnc[nH]1)NC(=O)[C@@H](NC(=O)[C@H](CO)NC(=O)[C@H](Cc1ccc(O)cc1)NC(=O)[C@H](CC(C)C)NC(=O)[C@@H](NC(=O)[C@H](C)NC(=O)[C@@H](NC(=O)[C@@H](NC(C)=O)[C@@H](C)O)[C@@H](C)CC)C(C)C)C(C)C)C(=O)N[C@@H](CC(=O)O)C(=O)N[C@H](C(=O)N[C@@H](CCCCN)C(=O)NCC(=O)N[C@@H](CSCC(N)=O)C(N)=O)C(C)C` (Ac-TIAVLYSVHQRIDVKGC(Cam)-NH2): the EC50 in data set [1] was found to be 13 µM; in data set [4], 29 µM; in data set [5] it was 8.1 µM. In data set [2], this compound yielded a cytotoxic concentration (CC50) at 120 h of more than 50 µM. In addition, in data set [3], the solubility result is reported as “Insoluble”.
As for `CC[C@H](C)[C@H](NC(=O)[C@@H](NC(=O)[C@H](CC(N)=O)NC(=O)[C@H](Cc1ccc(O)cc1)NC(=O)[C@H](CC(C)C)NC(=O)[C@H](CO)NC(=O)[C@H](CCCNC(=N)N)NC(=O)[C@H](CC(C)C)NC(=O)[C@H](CCC(=O)O)NC(=O)[C@H](CCC(=O)O)NC(=O)[C@H](CO)NC(=O)CNC(C)=O)[C@@H](C)O)C(=O)N[C@@H](C)C(=O)N[C@H](C(=O)N[C@@H](CC(C)C)C(=O)NCC(=O)N[C@@H](CSCC(N)=O)C(N)=O)C(C)C`, the 50% cytotoxic concentration (CC50) at 120 h in data set [2] was more than 50 µM. In addition, the solubility result in data set [3] is “Insoluble”. Further, the EC50 in data set [4] was more than 50 µM.
For the compound `CC[C@H](C)[C@H](NC(=O)[C@H](Cc1cnc[nH]1)NC(=O)[C@H](CCCCN)NC(=O)[C@H](CC(C)C)NC(C)=O)C(=O)N[C@H](C(=O)N[C@@H](Cc1c[nH]c2ccccc12)C(=O)N[C@@H](C)C(=O)N[C@@H](CO)C(=O)N[C@@H](CCCNC(=N)N)C(=O)N[C@@H](CCC(=O)O)C(=O)N[C@@H](CC(C)C)C(=O)N[C@@H](CCC(=O)O)C(=O)N[C@@H](CCCNC(=N)N)C(=O)N[C@@H](Cc1ccccc1)C(=O)N[C@@H](C)C(=O)NCC(=O)N[C@@H](CSCC(=O)N[C@@H](CCCNC(=N)N)C(=O)N[C@@H](CCCNC(=N)N)C(=O)N[C@@H](CCCNC(=N)N)C(=O)N[C@@H](CCCNC(=N)N)C(=O)N[C@@H](CCCNC(=N)N)C(=O)N[C@@H](CCCNC(=N)N)C(=O)N[C@@H](CCCNC(=N)N)C(=O)N[C@@H](CCCNC(=N)N)C(N)=O)C(N)=O)C(C)C`, in data set [2], half-maximal cytotoxicity (CC50 at 120 h) was put at 3.7 µM. Also, in data set [6], the inhibition entry is “inactive”.
`CC[C@H](C)[C@H](NC(=O)[C@H](CCC(N)=O)NC(=O)[C@H](CCCNC(=N)N)NC(=O)[C@H](CO)NC(=O)CNC(=O)[C@H](CCC(=O)O)NC(=O)[C@H](CO)NC(=O)[C@@H](NC(=O)[C@H](CCC(=O)O)NC(=O)[C@H](CC(C)C)NC(C)=O)[C@@H](C)O)C(=O)N[C@@H](CC(C)C)C(=O)NCC(=O)N[C@@H](CCC(N)=O)C(=O)N[C@@H](CC(C)C)C(=O)N[C@@H](CCC(N)=O)C(=O)NCC(=O)N[C@@H](CSCC(N)=O)C(N)=O` (Ac-LETSEGSRQILGQLQGC(Cam)-NH2): the CC50 at 120 h in data set [2] is more than 50 µM. Moreover, the EC50 in data set [4] was found to be 37 µM. Also, in data set [7], the inhibition at 6.25 µM turned out to be 24%. Also, the inhibition at 50 µM in data set [8] came out at 25%.
